Data taken from PMC2654246 (The Journal of neuroscience : the official journal of the …, 2009).
Marks after values point to notes of the source that are not given here.

Experiments:
αS268Cβγδ nAChR = αS268Cβγδ nAChR (Mus musculus, UniProt P02716+P04756+P04760, S288C); assay: Effect of MTS reagent application on subsequent ACh induced current; type: cell-based; conditions: αS268C
αS269Cβγδ nAChR = αS269Cβγδ nAChR (Mus musculus, UniProt P02716+P04756+P04760, S289C); assay: as above; type: cell-based; conditions: αS269C; MTSES 5 mM, 2 min; ACh EC30-70
[1] = tested on: nAChR α-subunit single Cys mutants (αβγδ); conditions: 2 min, αA270C, αL273C, αI274C, αK276C, αY277C
αG275Cβγδ nAChR = αG275Cβγδ nAChR (Mus musculus, UniProt P02716+P04756+P04760, G295C); assay: Rates of reaction of engineered Cys with MTSEA; type: cell-based; conditions: MTSEA with ACh (EC80-EC100)
αI274Cβγδ nAChR = αI274Cβγδ nAChR (Mus musculus, UniProt P02716+P04756+P04760, I294C); assay: Rates of reaction of engineered Cys with MTSEA; type: cell-based; conditions: MTSEA with ACh (EC80-EC100)
αP272Cβγδ nAChR = αP272Cβγδ nAChR (Mus musculus, UniProt P02716+P04756+P04760, P292C); assay: Rates of reaction of engineered Cys with MTSEA; type: cell-based; conditions: MTSEA with ACh (EC80-EC100)
αV271Cβγδ nAChR = αV271Cβγδ nAChR (Mus musculus, UniProt P02716+P04756+P04760, V291C); assay: Rates of reaction of engineered Cys with MTSEA; type: cell-based; conditions: MTSEA with ACh (EC80-EC100)
αT267Cβγδ nAChR = αT267Cβγδ nAChR (Mus musculus, UniProt P02716+P04756+P04760, T287C); assay: Rates of reaction of engineered Cys with MTSEA; type: cell-based; conditions: MTSEA with ACh (EC80-EC100)
αS266Cβγδ nAChR = αS266Cβγδ nAChR (Mus musculus, UniProt P02716+P04756+P04760, S286C); assay: Rates of reaction of engineered Cys with MTSEA; type: cell-based
Chain of αS266Cβγδ nAChR (P04756 21-457 S286C): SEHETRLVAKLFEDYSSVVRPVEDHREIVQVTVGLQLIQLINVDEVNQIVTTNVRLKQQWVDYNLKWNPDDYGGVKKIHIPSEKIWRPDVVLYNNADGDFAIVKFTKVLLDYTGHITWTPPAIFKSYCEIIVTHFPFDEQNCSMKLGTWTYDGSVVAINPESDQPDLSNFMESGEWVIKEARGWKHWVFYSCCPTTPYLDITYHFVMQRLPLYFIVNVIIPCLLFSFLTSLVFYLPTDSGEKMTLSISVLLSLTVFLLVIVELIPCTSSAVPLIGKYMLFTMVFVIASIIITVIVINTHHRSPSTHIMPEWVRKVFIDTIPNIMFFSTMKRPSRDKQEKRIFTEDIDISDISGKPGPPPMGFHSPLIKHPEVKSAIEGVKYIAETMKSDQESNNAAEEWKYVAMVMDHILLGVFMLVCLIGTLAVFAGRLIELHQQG
Chain of αS266Cβγδ nAChR (P09690 24-501 partner): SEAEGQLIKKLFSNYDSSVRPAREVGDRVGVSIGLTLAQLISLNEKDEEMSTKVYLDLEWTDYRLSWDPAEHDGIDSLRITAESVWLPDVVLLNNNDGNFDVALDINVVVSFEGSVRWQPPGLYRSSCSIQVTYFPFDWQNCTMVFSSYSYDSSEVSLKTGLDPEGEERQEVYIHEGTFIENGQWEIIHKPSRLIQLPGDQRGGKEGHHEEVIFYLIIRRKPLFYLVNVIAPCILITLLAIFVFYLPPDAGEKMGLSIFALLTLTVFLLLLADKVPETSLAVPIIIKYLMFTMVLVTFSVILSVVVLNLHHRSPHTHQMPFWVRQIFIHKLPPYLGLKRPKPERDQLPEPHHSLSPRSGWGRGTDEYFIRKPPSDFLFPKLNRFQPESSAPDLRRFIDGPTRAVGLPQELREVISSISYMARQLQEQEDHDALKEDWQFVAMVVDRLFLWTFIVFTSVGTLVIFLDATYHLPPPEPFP
Chain of αS266Cβγδ nAChR (P04760 23-519): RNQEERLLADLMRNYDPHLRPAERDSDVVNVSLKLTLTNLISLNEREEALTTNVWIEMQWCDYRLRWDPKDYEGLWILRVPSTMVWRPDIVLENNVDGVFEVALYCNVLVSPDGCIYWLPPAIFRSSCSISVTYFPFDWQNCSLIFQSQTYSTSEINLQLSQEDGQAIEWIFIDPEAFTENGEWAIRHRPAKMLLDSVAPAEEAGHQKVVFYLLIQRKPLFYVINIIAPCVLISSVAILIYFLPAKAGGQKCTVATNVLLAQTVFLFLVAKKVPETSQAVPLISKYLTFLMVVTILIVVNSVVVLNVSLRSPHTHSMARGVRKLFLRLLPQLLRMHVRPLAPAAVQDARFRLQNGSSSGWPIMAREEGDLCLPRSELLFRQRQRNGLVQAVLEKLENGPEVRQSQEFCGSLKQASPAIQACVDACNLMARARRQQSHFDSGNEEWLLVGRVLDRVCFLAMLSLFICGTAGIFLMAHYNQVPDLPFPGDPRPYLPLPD
Chain of αS266Cβγδ nAChR (P02716 25-520, stated change not applied): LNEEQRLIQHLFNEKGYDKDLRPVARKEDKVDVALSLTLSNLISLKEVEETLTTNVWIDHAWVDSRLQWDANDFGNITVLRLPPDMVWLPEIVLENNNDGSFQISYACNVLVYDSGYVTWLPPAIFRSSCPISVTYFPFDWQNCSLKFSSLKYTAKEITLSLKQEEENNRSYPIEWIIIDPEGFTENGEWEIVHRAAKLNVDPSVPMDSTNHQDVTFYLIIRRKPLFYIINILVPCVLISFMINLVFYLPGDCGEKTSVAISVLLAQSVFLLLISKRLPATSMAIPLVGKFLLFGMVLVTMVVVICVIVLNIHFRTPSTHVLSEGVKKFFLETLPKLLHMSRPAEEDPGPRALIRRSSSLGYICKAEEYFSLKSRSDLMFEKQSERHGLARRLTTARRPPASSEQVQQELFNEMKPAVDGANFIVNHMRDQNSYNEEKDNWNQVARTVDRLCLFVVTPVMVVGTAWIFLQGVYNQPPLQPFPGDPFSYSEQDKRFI

αP265Cβγδ nAChR = αP265Cβγδ nAChR (Mus musculus, UniProt P02716+P04756+P04760, P285C); assay: Rates of reaction of engineered Cys with MTSEA; type: cell-based; conditions: MTSEA with ACh (EC80-EC100)
αI264Cβγδ nAChR = αI264Cβγδ nAChR (Mus musculus, UniProt P02716+P04756+P04760, I284C); assay: Rates of reaction of engineered Cys with MTSEA; type: cell-based; conditions: MTSEA with ACh (EC80-EC100)
αL263Cβγδ nAChR = αL263Cβγδ nAChR (Mus musculus, UniProt P02716+P04756+P04760+P09690, L283C); assay: Rates of reaction of engineered Cys with MTSEA; type: cell-based; conditions: αL263C; MTSEA alone; component not specified, classed slow
αE262Cβγδ nAChR = αE262Cβγδ nAChR (Mus musculus, UniProt P02716+P04756+P04760, E282C); assay: Rates of reaction of engineered Cys with MTSEA; type: cell-based; conditions: MTSEA with ACh (EC80-EC100)

Chain of αS268Cβγδ nAChR (P04756 21-457 S288C): as the sequence (P04756 21-457 S286C) above, with C266S, S268C counted along it
Chain of αS268Cβγδ nAChR (P09690 24-501 partner): as the sequence (P09690 24-501 partner) above
Chain of αS268Cβγδ nAChR (P04760 23-519): as the sequence (P04760 23-519) above
Chain of αS268Cβγδ nAChR (P02716 25-520): as the sequence (P02716 25-520, stated change not applied) above

Compound | % increase of subsequent ACh induced current amplitude (αS268Cβγδ nAChR; MTSES 5 mM, 2 min, ACh EC30-70) [%] | effect of MTSES applied after MTSEA on subsequent ACh induced currents (αS268Cβγδ nAChR; compared to MTSES applied alone) | % increase of subsequent ACh induced current amplitude (αS269Cβγδ nAChR) [%] | effect of MTSES application on ACh induced currents ([1]; MTSES 5 mM) | τ in the presence of ACh, second order reaction rate constant (αG275Cβγδ nAChR) [M⁻¹ s⁻¹] | τ in the presence of ACh, second order reaction rate constant (αI274Cβγδ nAChR) | τ in the presence of ACh, second order reaction rate constant (αP272Cβγδ nAChR) | τ in the presence of ACh, second order reaction rate constant (αV271Cβγδ nAChR) | τ in the presence of ACh, second order reaction rate constant (αT267Cβγδ nAChR) | τ, second order reaction rate constant (αS266Cβγδ nAChR; MTSEA applied in the absence of ACh) | τ in the presence of ACh, second order reaction rate constant (αS266Cβγδ nAChR; MTSEA with ACh (EC80-EC100)) | τ in the presence of ACh, second order reaction rate constant (αP265Cβγδ nAChR) | τ in the presence of ACh, second order reaction rate constant (αI264Cβγδ nAChR) [M⁻¹ s⁻¹] | second-order rate constant (αL263Cβγδ nAChR) | τ in the presence of ACh, second order reaction rate constant (αE262Cβγδ nAChR) | reaction of MTSEA at this position (successive MTSEA then MTSES application) (αS268Cβγδ nAChR; MTSEA 2 mM, 2 min followed by MTSES 5 mM, 2 min on the same oocyte) | effect of MTSEA application on ACh induced currents ([1]; MTSEA 2 mM, absence of ACh, αS268C)
CS(=O)(=O)SCCS(=O)(=O)[O-].[Na+] [MTSES, methanethiosulfonate ethylsulfonate] | 85 ± 12 | similarly increased subsequent ACh induced currents | 177 ± 37 | no functional effect |  |  |  |  |  |  |  |  |  |  |  |  | 
CS(=O)(=O)SCCN [MTSEA, methanethiosulfonate ethylammonium] |  |  |  |  | 22.2 ± 3.3 | 8.7 ± 2.6*** M^-1s^-1 | 426 ± 66* M^-1s^-1 | 398 ± 73*** M^-1s^-1 | 5,450 ± 86*** M^-1s^-1 | 12,200 ± 2,200 M^-1s^-1 | 6,970 ± 1,800 M^-1s^-1 | 3,940 ± 620*** M^-1s^-1 | 22.8 ± 6.5 | < 1,000 M^-1s^-1 | 23,000 ± 2,100** M^-1s^-1 | does not react at this position | no effect
